Assays:
[1] = test system: hand and facial eczema; experiment: Topical treatment of patients with hand and facial eczema; assay type: in vivo, human; conditions: four patients, topically applied in cream base over 14 days
Method: To test the effect of the compounds on treatment of human dermatologic disorders associated with increased CCL5 production by keratinocytes, Compound 11 and Compound 21 were formulated into a topically applied cream at a concentration of 7%. The compounds in the cream base were applied topically to human subjects suffering from dermatitis in an area of the skin with active skin lesions. The control was the topical cream base composition without the active compounds. Outcome was measured by reduction or disappearance to the lesion in the treated area vs the control area.
Eczema: Four patients with hand and facial eczema were treated with Compound 97 topically applied in a cream base over a period of 14 days. By day 7 the eczema had resolved in the area treated in three of the patients and by day 12 in the fourth patient. The eczema persisted in the areas not so treated.

[2] = test system: rosacea; experiment: Topical treatment of patients with rosacea; assay type: in vivo, human; conditions: two patients, lotion form, 28 days; not in the untreated areas
Method: Rosacea: Two patients with rosacea were treated with Compound 25 for 28 days in a lotion form.

SMILES	eczema resolved in treated area by day (fourth patient) ([1]; the fourth patient)	eczema resolved in treated area by day (three of the patients) ([1]; three of the patients, eczema persisted in untreated areas)	rosacea in treated area at end of course of therapy [2]
CC(C)OC(=O)C(C)(C)Oc1ccc(C(=O)c2ccc(Cl)cc2)cc1 [Compound 97]	≤ 12 days	≤ 7 days	–
CC(C)OC(=O)C(C)(C)Oc1ccc(C(F)(F)F)cc1 [Compound 25]	–	–	nearly disappeared

Source: patent US11318111B2, “CCL5 inhibitors” (LAPKO INC., priority 2018, dated 2022)
